Experimental data: US20030097692A1, “Plants with imidazolinone-resistant ALS” (priority 2000, published 2003)

Tested on: Arabidopsis seedlings
Assay: Dose-response of imazethapyr spray on 7-day-old Arabidopsis seedlings (foliar damage)
Format: in vivo, Arabidopsis thaliana
Settings: repeated dose-response experiments, spray application, scored for foliar damage at 16 days post-treatment
Protocol: EMS-mutagenized M2 generation Arabidopsis thaliana (cv. Col-0) seeds were obtained from Lehle Seeds, Round Rock, Texas under catalog number M2E02-02. Flats were seeded to provide approximately one million ems-mutagenized seeds. The seeded flats were then watered by sub-irrigation, covered with transparent plastic domes, and maintained at 4° C. and 70% relative humidity for 4 days in the dark. At the end of this period the growth chamber conditions were reset to 21° C., 70% relative humidity under a 16 hour photoperiod, with soil-surface light intensity adjusted to approximately 150 uEinsteins/m^2/s. The flats were maintained under these conditions for seven days prior to imazethapyr, an imidazolinone treatments. The plastic domes were removed 2 days before the treatments to acclimate the plants to ambient humidity.
Based on repeated dose-response experiments using 7-day-old Arabidopsis seedlings grown under the conditions described above, it was determined that the I100 for imazethapyr was approximately 0.035 lbs. active ingredient per acre (a.i./acre). EMS-mutagenized seedlings were screened at a rate equivalent to approximately twice the 1100 value, or 0.07 lbs. a.i./acre. […] Seedlings were then returned to the growth chamber, and scored for foliar damage at 16 days post-treatment.

With `CCc1cnc(C2=NC(C)(C(C)C)C(=O)N2)c(C(=O)O)c1` (stereo not shown) [imazethapyr, 2-[4,5-dihydro-4-methyl-4-(1-methylethyl)-5-oxo-1H-imidazol-2-yl]-5-ethyl-3-pyridinecarboxylic acid] the I100 was “approximately 0.035 lbs. active ingredient per acre”.
